Literature values as cited in patent US20160339123A1, “POLYBUTYLACRYLATE-BASED NANOCOMPOSITE PHOTOACOUSTIC IMAGING AGENT AND A PREPARATION METHOD THEREOF” (Wenzhou Institute of Biomaterials and Engineering, priority 2015, published 2016).

Details: near infrared region

Row | absorption peak [nm] | Structure (SMILES)
1 | ~780 | CC1(C)C(/C=C/C=C/C=C/C=C2\N(CCCCS(=O)(=O)O)c3ccc4ccccc4c3C2(C)C)=[N+](CCCCS(=O)(=O)[O-])c2ccc3ccccc3c21 [indocyanine green]
2 | ~664 | CN(C)c1ccc2nc3ccc(=[N+](C)C)cc-3sc2c1 [methylene blue]
